Assay [1] has as its target human adenosine A2B receptor (Homo sapiens (Human), UniProt P29275). Description: Adenosine A2B Receptor Cyclic AMP GS Assay. Type of assay: cell-based. Conditions: A2B_cAMP_EC50 (nM), HEK-293 cells expressing human A2B, agonist NECA 12 nM. The procedure, abridged:
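Stably transfected HEK-293 cells were preincubated with compound for 30 min at room temperature, then stimulated with 12 nM NECA for 60 min. cAMP accumulation was read by FRET (665/620 ratio), and EC50 was fitted from percent of control versus log compound concentration.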

A further assay addresses Adenosine A2A (Homo sapiens (Human), UniProt P29274). Put plainly: A2A Tag-Lite HTRF assay. The format is binding. Conditions: Tag-Lite Adenosine A2A labeled cells, fluorescent ligand 12.5 nM; read-out: A2A_Ki. From the text:
Example C. A2A Tag-Lite® HTRF Assay

Sequence of Adenosine A2A (P29274 whole entry): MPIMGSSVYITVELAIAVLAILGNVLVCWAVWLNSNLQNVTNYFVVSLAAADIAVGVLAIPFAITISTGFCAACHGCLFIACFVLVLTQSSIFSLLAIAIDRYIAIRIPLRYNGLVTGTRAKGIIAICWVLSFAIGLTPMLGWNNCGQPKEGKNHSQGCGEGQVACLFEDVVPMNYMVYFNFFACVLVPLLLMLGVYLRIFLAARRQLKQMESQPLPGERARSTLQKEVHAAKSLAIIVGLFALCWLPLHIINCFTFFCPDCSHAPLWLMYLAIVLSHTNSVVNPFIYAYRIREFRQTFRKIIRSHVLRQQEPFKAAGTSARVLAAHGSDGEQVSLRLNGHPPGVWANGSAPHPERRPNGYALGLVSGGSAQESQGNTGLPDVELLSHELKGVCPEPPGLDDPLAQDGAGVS
Sequence of human adenosine A2B receptor (P29275 whole entry): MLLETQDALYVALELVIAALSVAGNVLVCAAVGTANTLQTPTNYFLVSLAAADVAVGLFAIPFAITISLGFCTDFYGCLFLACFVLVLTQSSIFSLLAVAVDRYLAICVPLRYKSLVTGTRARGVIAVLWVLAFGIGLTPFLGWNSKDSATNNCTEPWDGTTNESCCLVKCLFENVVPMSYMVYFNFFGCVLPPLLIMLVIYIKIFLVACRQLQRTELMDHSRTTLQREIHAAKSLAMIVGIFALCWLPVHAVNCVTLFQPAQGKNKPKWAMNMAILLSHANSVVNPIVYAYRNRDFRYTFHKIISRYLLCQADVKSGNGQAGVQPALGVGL

Broadly, the EC50 is the concentration giving half of the maximal effect. For `Cc1ncoc1-c1c(-c2cccc(C#N)c2)nc(N)c2nc(Cc3c(F)cccc3CN3CC[C@@](C)(C(=O)O)C3)nn12` [Example 76, (R)-1-(2-((8-amino-6-(3-cyanophenyl)-5-(4-methyloxazol-5-yl)-[1,2,4]triazolo[1,5-a]pyrazin-2-yl)methyl)-3-fluorobenzyl)-3-methylpyrrolidine-3-carboxylic Acid], in assay [1], the EC50 lay in the range of 10 to 100 nM. Also, the Ki at Adenosine A2A was below 10 nM.
For `Cc1ncoc1-c1c(-c2cccc(C#N)c2)nc(N)c2nc(C(N)c3c(F)cccc3F)nn12` (centres unmarked) [Example 77, 3-(8-amino-2-(amino(2,6-difluorophenyl)methyl)-5-(4-methyloxazol-5-yl)-[1,2,4]triazolo[1,5-a]pyrazin-6-yl)benzonitrile], in that order: below 10 nM and below 10 nM.
For `CNC(c1nc2c(N)nc(-c3cccc(C#N)c3)c(-c3ocnc3C)n2n1)c1c(F)cccc1F` (centres unmarked) [Example 78, 3-(8-amino-2-((2,6-difluorophenyl)(methylamino)methyl)-5-(4-methyloxazol-5-yl)-[1,2,4]triazolo[1,5-a]pyrazin-6-yl)benzonitrile], in that order: below 10 nM and below 10 nM.
For `Cc1ncoc1-c1c(-c2cccc(C#N)c2)nc(N)c2nc(C(NCCO)c3c(F)cccc3F)nn12` (centres unmarked) [Example 79, 3-(8-amino-2-((2,6-difluorophenyl)((2-hydroxyethyl)amino)methyl)-5-(4-methyloxazol-5-yl)-[1,2,4]triazolo[1,5-a]pyrazin-6-yl)benzonitrile], in that order: below 10 nM and below 10 nM.
`Cc1ncoc1-c1c(-c2cccc(C#N)c2)nc(N)c2nc(C(N)c3ccccc3F)nn12` (centres unmarked) [Example 80, 3-(8-amino-2-(amino(2-fluorophenyl)methyl)-5-(4-methyloxazol-5-yl)-[1,2,4]triazolo[1,5-a]pyrazin-6-yl)benzonitrile] displayed an EC50 in assay [1] below 10 nM. The Ki on Adenosine A2A was below 10 nM.
In turn, `Cn1nc(-c2c(-c3cccc(C#N)c3)nc(N)c3nc(C(N)c4c(F)cccc4F)nn23)ccc1=O` (centres unmarked) [Example 81, 3-(8-amino-2-(amino(2,6-difluorophenyl)methyl)-5-(1-methyl-6-oxo-1,6-dihydropyridazin-3-yl)-[1,2,4]triazolo[1,5-a]pyrazin-6-yl)benzonitrile] had an EC50 in assay [1] below 10 nM. The Ki at Adenosine A2A was below 10 nM.
On to `N#Cc1cccc(-c2nc(N)c3nc(Cc4ncccc4-c4cnco4)nn3c2-c2ccncn2)c1` [Example 82, 3-(8-amino-2-((3-(oxazol-5-yl)pyridin-2-yl)methyl)-5-(pyrimidin-4-yl)-[1,2,4]triazolo[1,5-a]pyrazin-6-yl)benzonitrile], for which, in assay [1], the EC50 was below 10 nM. Besides, the Ki at Adenosine A2A was below 10 nM.
With `Cn1cc(-c2cccc(F)c2Cc2nc3c(N)nc(-c4cccc(C#N)c4F)cn3n2)cn1` [Example 83, 3-(8-amino-2-(2-fluoro-6-(1-methyl-1H-pyrazol-4-yl)benzyl)-[1,2,4]triazolo[1,5-a]pyrazin-6-yl)-2-fluorobenzonitrile], in assay [1], the EC50 is below 10 nM. Also, the Ki at Adenosine A2A is below 10 nM.
On to `CN1CC[C@H](NCc2cccc(F)c2Cc2nc3c(N)nc(-c4cccc(C#N)c4F)cn3n2)C1=O` [Example 84, (S)-3-(8-amino-2-(2-fluoro-6-(((1-methyl-2-oxopyrrolidin-3-yl)amino)methyl)benzyl)-[1,2,4]triazolo[1,5-a]pyrazin-6-yl)-2-fluorobenzonitrile], for which, in assay [1], the 50% effective concentration (EC50) was below 10 nM. Also, the Ki at Adenosine A2A was below 10 nM.
Turning to `CN1CCC2(CN(Cc3cccc(F)c3Cc3nc4c(N)nc(-c5cccc(C#N)c5F)cn4n3)C2)C1=O` [Example 85, 3-(8-amino-2-(2-fluoro-6-((6-methyl-5-oxo-2,6-diazaspiro[3.4]octan-2-yl)methyl)benzyl)-[1,2,4]triazolo[1,5-a]pyrazin-6-yl)-2-fluorobenzonitrile], the EC50 in assay [1] is 10 to 100 nM. For the same molecule, on Adenosine A2A, the Ki was below 10 nM.
For `Cc1ncoc1-c1c(-c2cccc(C#N)c2F)nc(N)c2nc(Cc3ccccn3)nn12` [Example 86, 3-(8-amino-5-(4-methyloxazol-5-yl)-2-(pyridin-2-ylmethyl)-[1,2,4]triazolo[1,5-a]pyrazin-6-yl)-2-fluorobenzonitrile], in that order: below 10 nM and below 10 nM.
`Cc1nc(C(O)C(F)F)c(-c2c(-c3cccc(C#N)c3F)nc(N)c3nc(Cc4ccccn4)nn23)o1` (centres unmarked) [Example 87, 3-(8-amino-5-(4-(2,2-difluoro-1-hydroxyethyl)-2-methyloxazol-5-yl)-2-(pyridin-2-ylmethyl)-[1,2,4]triazolo[1,5-a]pyrazin-6-yl)-2-fluorobenzonitrile]: the EC50 in assay [1] was in the range of 10 to 100 nM. Moreover, the Ki at Adenosine A2A is below 10 nM.
For `Cc1nc(C(O)C(F)(F)F)c(-c2c(-c3cccc(C#N)c3F)nc(N)c3nc(Cc4ccccn4)nn23)o1` (centres unmarked) [Example 88, 3-(8-amino-5-(2-methyl-4-(2,2,2-trifluoro-1-hydroxyethyl)oxazol-5-yl)-2-(pyridin-2-ylmethyl)-[1,2,4]triazolo[1,5-a]pyrazin-6-yl)-2-fluorobenzonitrile], in that order: 10 to 100 nM and below 10 nM.
In assay [1], `Cn1cc(-c2c(-c3cccc(C#N)c3F)nc(N)c3nc(Cc4ccccn4)nn23)ccc1=O` [Example 89, 3-(8-amino-5-(1-methyl-6-oxo-1,6-dihydropyridin-3-yl)-2-(pyridin-2-ylmethyl)-[1,2,4]triazolo[1,5-a]pyrazin-6-yl)-2-fluorobenzonitrile] came in with an EC50 of 10 to 100 nM. The Ki at Adenosine A2A was below 10 nM.
For `Cn1cnc(S(=O)(=O)N2CCCC2Cc2nc3c(N)nc(-c4cccc(C#N)c4F)cn3n2)c1` (centres unmarked) [Example 90, 3-(8-amino-2-((1-((1-methyl-1H-imidazol-4-yl)sulfonyl)pyrrolidin-2-yl)methyl)-[1,2,4]triazolo[1,5-a]pyrazin-6-yl)-2-fluorobenzonitrile], in assay [1], the EC50 fell in the range of 100 to 1000 nM. Moreover, the Ki at Adenosine A2A is below 10 nM.
For `CC(=O)N1CCC(Cc2cccc(F)c2Cc2nc3c(N)nc(-c4cccc(C#N)c4F)cn3n2)CC1` [Example 91, 3-(2-(2-((1-acetylpiperidin-4-yl)methyl)-6-fluorobenzyl)-8-amino-[1,2,4]triazolo[1,5-a]pyrazin-6-yl)-2-fluorobenzonitrile], in that order: 10 to 100 nM and below 10 nM.
On the same counts, the results for `N#Cc1cccc(-c2nc(N)c3cc(Cc4c[nH]c5cccnc45)nn3c2-c2ccncn2)c1` [Example 96, 3-(2-((1H-pyrrolo[3,2-b]pyridin-3-yl)methyl)-4-amino-7-(pyrimidin-4-yl)pyrazolo[1,5-a]pyrazin-6-yl)benzonitrile] are 10 to 100 nM and below 10 nM.
Molecule `Cn1cc(Cn2cc(-c3cccc(F)c3Cc3nc4c(N)nc(-c5cccc(C#N)c5F)cn4n3)cn2)cn1` [Example 99, 3-(8-amino-2-(2-fluoro-6-(1-((1-methyl-1H-pyrazol-4-yl)methyl)-1H-pyrazol-4-yl)benzyl)-[1,2,4]triazolo[1,5-a]pyrazin-6-yl)-2-fluorobenzonitrile] had an EC50 in assay [1] of 10 to 100 nM. Also, at Adenosine A2A, the Ki was below 10 nM.
For `N#Cc1cccc(-c2cn3nc(Cc4c(F)cccc4-c4cnn(Cc5ccccn5)c4)nc3c(N)n2)c1F` [Example 107, 3-(8-amino-2-(2-fluoro-6-(1-(pyridin-2-ylmethyl)-1H-pyrazol-4-yl)benzyl)-[1,2,4]triazolo[1,5-a]pyrazin-6-yl)-2-fluorobenzonitrile], in that order: 10 to 100 nM and below 10 nM.
In assay [1], `CS(=O)(=O)CCn1cc(-c2cccc(F)c2Cc2nc3c(N)nc(-c4cccc(C#N)c4F)cn3n2)cn1` [Example 112, 3-(8-amino-2-(2-fluoro-6-(1-(2-(methylsulfonyl)ethyl)-1H-pyrazol-4-yl)benzyl)-[1,2,4]triazolo[1,5-a]pyrazin-6-yl)-2-fluorobenzonitrile] showed an EC50 below 10 nM. Moreover, at Adenosine A2A, the Ki was below 10 nM.
`CN(C)C(=O)Cn1cc(-c2cccc(F)c2Cc2nc3c(N)nc(-c4cccc(C#N)c4F)cn3n2)cn1` [Example 114, 2-(4-(2-((8-amino-6-(3-cyano-2-fluorophenyl)-[1,2,4]triazolo[1,5-a]pyrazin-2-yl)methyl)-3-fluorophenyl)-1H-pyrazol-1-yl)-N,N-dimethylacetamide] came in with an EC50 in assay [1] of 10 to 100 nM. Further, the Ki on Adenosine A2A is below 10 nM.
For `N#Cc1cccc(-c2cn3nc(Cc4c(F)cccc4-c4cnn(CC(N)=O)c4)nc3c(N)n2)c1F` [Example 115, 2-(4-(2-((8-amino-6-(3-cyano-2-fluorophenyl)-[1,2,4]triazolo[1,5-a]pyrazin-2-yl)methyl)-3-fluorophenyl)-1H-pyrazol-1-yl)acetamide], in that order: below 10 nM and below 10 nM.
`CN[C@H]1C[C@H](n2cc(-c3cccc(F)c3Cc3nc4c(N)nc(-c5cccc(C#N)c5F)cn4n3)cn2)C1` [Example 116, 3-(8-amino-2-(2-fluoro-6-(1-((trans)-3-(methylamino)cyclobutyl)-1H-pyrazol-4-yl)benzyl)-[1,2,4]triazolo[1,5-a]pyrazin-6-yl)-2-fluorobenzonitrile] yielded an EC50 in assay [1] of 10 to 100 nM. For the same molecule, the Ki at Adenosine A2A was below 10 nM.
`N#CCCn1cc(-c2cccc(F)c2Cc2nc3c(N)nc(-c4cccc(C#N)c4F)cn3n2)cn1` [Example 117, 3-(8-amino-2-(2-(1-(2-cyanoethyl)-1H-pyrazol-4-yl)-6-fluorobenzyl)-[1,2,4]triazolo[1,5-a]pyrazin-6-yl)-2-fluorobenzonitrile] displayed an EC50 in assay [1] below 10 nM. In addition, the Ki at Adenosine A2A was below 10 nM.
Turning to `N#Cc1cccc(-c2cn3nc(Cc4c(F)cccc4-c4cnn(CC(=O)N5CC(O)C5)c4)nc3c(N)n2)c1F` [Example 118, 3-(8-amino-2-(2-fluoro-6-(1-(2-(3-hydroxyazetidin-1-yl)-2-oxoethyl)-1H-pyrazol-4-yl)benzyl)-[1,2,4]triazolo[1,5-a]pyrazin-6-yl)-2-fluorobenzonitrile], the concentration for a half-maximal effect (EC50) in assay [1] was below 10 nM. Also, the Ki at Adenosine A2A is below 10 nM.

Values taken from patent US11161850B2, “Fused pyrazine derivatives as A2A / A2B inhibitors” (Incyte Corporation, priority 2018, dated 2021).
